# Where two headings read alike, the source gives them in different places.
# Experiments:
# [1] = tested on: S. aureus (ATCC 6538); test: Microbial susceptibility test (growth inhibition); assay type: cell-based; details: Staphylococcus aureus, read-out: IC50 bacterial growth inhibition
# Experimental: (§1) Escherichia coli (ATCC 13762) and S. aureus (ATCC 6538) were cultured overnight in tryptic soy broth and soybean-casein digestive medium (TSB, Oxoid, Milano, Italy) at 37 °C[70]. Subsequently, using 96-well plates (Sarstedt, Italy), 100 µL of TSB, 100 µL of CBD (5–160 µM, DF = 2) or CBDV (5.46–175 µM, DF = 2) and 100 µL of the bacterial culture corresponding to 1 × 10^4 CFU were added sequentially to each well. CBD and CBDV final concentrations in wells equal to 1.66–53 and 1.82–58.19 µM, respectively, were chosen on the basis of range-finding tests. TSB alone was used as the blank, physiologic solution (0.9% NaCl) was used as the negative control, methanol 5% v/v (final percentage in wells equal to 1.6% v/v) was used as the solvent control, and streptomycin at 60 µM (final concentration in the well equal to 20 µM) was used as the positive control. Experiments were conducted in sextuplicate. The plates were covered with sterile film to prevent evaporation and incubated at 37 °C. After 24, 48 and 72 h, the optical density of each well was recorded at 620 nm using a microplate reader. The bacterial growth inhibition percentage (IC%) was determined as follows:7 IC%=1-OD620testsample-OD620blank/OD620negativecontrol-OD620blank·100
# (§2) All results from five independent experiments are expressed as the IC50 or EC50 as determined by analysis with Prism 5 software (GraphPad Inc., San Diego, CA, USA) and nonlinear regression (log agonist vs. normalized response-variable slope) with a 95% confidence range. Lowest observed adverse effect concentrations (LOAECs) were calculated by one-way ANOVA and Dunnett’s comparison test. Differences compared to the controls were considered significant as follows: *p < 0.05, **p < 0.001 and ***p < 0.0001.
# [2] = tested on: Escherichia coli (ATCC 13762); test: Microbial susceptibility test (growth inhibition); assay type: cell-based; details: read-out: IC50 bacterial growth inhibition
# Experimental: as §1, §2
# [3] = tested on: MDA-MB-231 cells; test: BrdU-ELISA (DNA synthesis inhibition); assay type: cell-based; details: Homo sapiens, read-out: IC50 BrdU-ELISA
# Experimental: (§3) BrdU-ELISA was performed according to the protocol described by Lehmann and collaborators, and the results were used to evaluate the inhibition of DNA synthesis. A total of 1 × 10^4 cells/well were seeded in 100 µL of fresh medium into 96-well plates in triplicate at 37 °C in a humidified atmosphere of 95% air plus 5% CO2 for 24 h. Then, the medium was removed and replaced with 200 µL of medium with the same concentrations of CBD and CBDV that had been used in the previous test. In all experiments, blanks (wells with medium and without cells), negative controls (with only medium) and solvent controls (2.5% methanol) were included. The plates were incubated at 37 °C for 72 h. Then, 20 µL of 100 µM BrdU labelling solution was added to each well and incubated for 2 h at 37 °C. After removing the labelling solution, 200 µl of DNA fixing/denaturing solution was added to each well and incubated for 30 min at room temperature. After its discharge, 100 µL of the anti-BrdU-POD antibody solution [0.075 U/mL] was added to each well and incubated for 90 min at room temperature. After several washing steps with 1X PBS (200–300 µL/well), 100 µl of tetramethylbenzidine (TMB) was added to each well and incubated for 20–30 min (sufficient time for the colour change). The incorporation of BrdU into DNA was quantified spectrophotometrically at 370 nm. […] The mean absorbance of the control cells represented 100% cell proliferation, and the mean absorbance of the treated cells was related to the control values to determine cell sensitivity. Inhibition (%) of DNA synthesis/cell viability was determined as follows:2 IC%=1-OD370sample/OD370negativecontrol·100
# (§4) IC50 values (representing the median concentration at which DNA synthesis and cell viability were reduced by 50%) were calculated.
# as §2
# [4] = tested on: A549 cells; test: BrdU-ELISA (DNA synthesis inhibition); assay type: cell-based; details: Homo sapiens, read-out: IC50 BrdU-ELISA
# Experimental: as §3, §4, §2
# [5] = tested on: TelCOFS02MA cells; test: LDH assay (plasma membrane damage); assay type: cell-based, human; details: for IC50: Homo sapiens, read-out: IC50 LDH assay
# Experimental: LDH assay is a high-throughput method based on the release of the LDH cytoplasmic enzyme from the cytosol into the extracellular space when the plasma membrane is damaged[29],[30]. Plasma membrane damage related to the amount of lysed cells was monitored by LDH assay, and the results were used for indirectly detecting the necrosis correlated to the leakage of the cytosolic enzyme due the loss of membrane permeability control[29],[30]. This assay was performed with the protocol described by Lehmann and colleagues.
# Briefly, 1 × 10^4 A549 and Caco-2 cells and 2 × 10^4 HepG2, MDA-MB-231 and TelCOFS02MA cells were seeded in 100 µL of 1% FBS-fresh medium in each well of 96-well plates and incubated for 24 h at 37 °C with 95% humidity and 5% CO2. Then, the medium was removed and replaced with 100 µL of medium with different concentrations of CBD and CBDV, which were chosen on the basis of range-finding tests (as previously indicated). The plates were incubated at 37 °C for 72 h. In all experiments, the background control (wells with medium and without cells to obtain information about the LDH activity in the assay medium), low control (wells containing cells exposed only to the medium to determine spontaneous LDH release), high control (wells containing cells exposed to 2% Triton-X100 for 10 min before performing the assay to determine maximum LDH release), and solvent controls (2.5% methanol) were included. One hundred microlitres of supernatant was removed carefully from each well and transferred into corresponding wells in optically clear 96-well flat bottom microplates. One hundred microlitres of freshly prepared reaction mixture (Diaphorase (Catalyst)/NAD^+ /INT/sodium lactate) was added to each well and incubated for 30 min at 20 °C in darkness. Thus, NAD^+ was reduced to NADH/H^+ by the LDH-catalysed conversion of lactate to pyruvate. Then, the catalyst transferred H/H^+ from NADH/H^+ to the tetrazolium salt INT, which was reduced to formazan. To arrest the reaction, 50 µL/well of 1 N HCl was added. The spectrophotometric absorbance was determined at 492 nm. The absorbance of the background control wells was subtracted from all other values.
# The results are reported as percentages of cytotoxicity, which is linked to the percentage of LDH released from damaged plasma membranes, calculated as follows:3 IC%=OD492sample-OD492lowcontrol/OD492highcontrol-OD492lowcontrol·100
# IC50 values (concentrations of the sample to obtain 50% cytotoxicity) were calculated.
# All results from five independent experiments are expressed as the IC50 or EC50 as determined by analysis with Prism 5 software (GraphPad Inc., San Diego, CA, USA) and nonlinear regression (log agonist vs. normalized response-variable slope) with a 95% confidence range. […]
Compound,"IC50 ([1]; ATCC6538, 72 h) [µM]","IC50 ([2]; ATCC13762, 72 h) [µM]","IC50 ([3]; MDA-MB-231, 72 h) [µM]","IC50 ([4]; A549, 72 h) [µM]",IC50 ([5]; 72 h) [µM],"LOAEC LDH assay ([5]; TelCOFS02MA, 72 h) [µM]","IC50 ([1]; ATCC6538, S. aureus, 24 h of exposure, 95% confidence range in brackets) [µM]","IC50 ([1]; ATCC6538, S. aureus, 48 h of exposure, 95% confidence range in brackets) [µM]","IC50 ([1]; ATCC6538, S. aureus, 72 h of exposure, 95% confidence range in brackets) [µM]","IC50 ([2]; ATCC13762, E. coli, 72 h of incubation, 95% confidence range in brackets) [µM]","IC50 ([3]; MDA-MB-231, 72 h exposure, 95% confidence interval in brackets) [µM]","IC50 ([4]; A549, 72 h exposure, 95% confidence interval in brackets) [µM]","IC50 ([5]; TelCOFS02MA, 72 h exposure, 95% confidence interval in brackets) [µM]"
"C=C(C)[C@@H]1CCC(C)=C[C@H]1c1c(O)cc(CCC)cc1O [CBDV, cannabidivarin]",30.8,35.5,46.8,48.6,152,88,,,,,,,
"C=C(C)[C@@H]1CCC(C)=C[C@H]1c1c(O)cc(CCCCC)cc1O [CBD, Cannabidiol]",,,,,,80,10.3,4.86,1.84,29.1,38.4,40.4,118

# — publication PMC8602723, “Comparative assessment of antimicrobial, antiradical and cytotoxic activities of cannabidiol and its propyl analogue cannabidivarin” (Scientific Reports, 2021)
